Assay results from ChEMBL document CHEMBL5550112, “Development of a fluorescent ligand that can illuminate nuclear G-quadruplexes and modulate oncogene expression” (Bioorg Med Chem, 2024).
Activity calls are given as the source filed them. The calls are words filed in the database; no cut-off is given here.

Experiments:
Quadruplex DNA [1] = assay: Binding affinity to 5'-Cy5-labelled c-MYC G-quadruplex DNA (unknown origin) assessed as decrease in Cy5 fluorescence upto 5 uM by fluorescence quenching analysis; assay type: nucleic-acid assay
MDA-MB-231 [2] = assay: Induction of cell cycle arrest in human MDA-MB-231 cells assessed as accumulation of cells at G2-M phase at 10 uM incubated for 24 hrs by flow cytometry (reference value: 16.8 %); assay type: functional
Quadruplex DNA [3] = assay: Binding affinity to Parallel PS2M G-quadruplex DNA (unknown origin) assessed as increase in fluorescence intensity at 5 uM by fluorescence spectrophotometric analysis; assay type: nucleic-acid assay
Quadruplex DNA [4] = assay: Binding affinity to KRAS G-quadruplex DNA (unknown origin) assessed as fluorescence quantum yield by fluorescence spectrophotometric analysis; assay type: nucleic-acid assay
MDA-MB-231 [5] = assay: Induction of cell cycle arrest in human MDA-MB-231 cells assessed as accumulation of cells at G0-G1 phase at 15 uM incubated for 24 hrs by flow cytometry (reference value: 69.6 %); assay type: functional
DNA [6] = assay: Binding affinity to Duplex DNA (unknown origin) assessed as increase in fluorescence intensity at 5 uM by fluorescence spectrophotometric analysis; assay type: nucleic-acid assay
Quadruplex DNA [7] = assay: Binding affinity to 3'-Cy5-labelled c-MYC G-quadruplex DNA (unknown origin) assessed as dissociation constant by fluorescence quenching analysis; assay type: nucleic-acid assay
MDA-MB-231 [8] = assay: Induction of cell cycle arrest in human MDA-MB-231 cells assessed as accumulation of cells at G2-M phase at 15 uM incubated for 24 hrs by flow cytometry (reference value: 16.8 %); assay type: functional
MDA-MB-231 [9] = assay: Induction of cell cycle arrest in human MDA-MB-231 cells assessed as accumulation of cells at sub-G1 phase at 10 uM incubated for 24 hrs by flow cytometry (reference value: 0.6 %); assay type: functional
Quadruplex DNA [10] = assay: Binding affinity to KRAS G-quadruplex DNA (unknown origin) assessed as decrease in absorption band by measuring red shift at 5 uM by absorption spectra analysis; assay type: nucleic-acid assay
Quadruplex DNA [11] = assay: Binding affinity to c-MYC G-quadruplex DNA (unknown origin) assessed as fluorescence quantum yield by fluorescence spectrophotometric analysis; assay type: nucleic-acid assay
Quadruplex DNA [12] = assay: Binding affinity to Parallel VAV1 G-quadruplex DNA (unknown origin) assessed as increase in fluorescence intensity at 5 uM by fluorescence spectrophotometric analysis; assay type: nucleic-acid assay
Quadruplex DNA [13] = assay: Stabilization of FAM/TAMRA-labelled c-MYC G-quadruplex DNA (unknown origin) assessed as change in melting temperature in presence of duplex DNA by FRET assay; assay type: nucleic-acid assay
Quadruplex DNA [14] = assay: Binding affinity to 5'-Cy5-labelled c-MYC G-quadruplex DNA (unknown origin) assessed as dissociation constant by fluorescence quenching analysis; assay type: nucleic-acid assay
MDA-MB-231 [15] = assay: Induction of apoptosis in human MDA-MB-231 cells assessed as downregulation of PARP protein expression at 10 to 20 uM incubated for 24 hrs by Western blot analysis; assay type: functional, cell-based; conditions: dose 10-20 µM
Quadruplex DNA [16] = assay: Binding affinity to Antiparallel c-KIT G-quadruplex DNA (unknown origin) assessed as increase in fluorescence intensity at 5 uM by fluorescence spectrophotometric analysis; assay type: nucleic-acid assay
MDA-MB-231 [17] = assay: Induction of cell death in human MDA-MB-231 cells cultured as 3D tumor spheroids assessed as increase in red fluorescence intensity at 40 uM incubated for 7 days by propidium iodide staining based imaging analysis; assay type: functional; conditions: time 7.0 day
Quadruplex DNA [18] = assay: Binding affinity to c-MYC G-quadruplex DNA (unknown origin) assessed as decrease in absorption band by measuring red shift at 5 uM by absorption spectra analysis; assay type: nucleic-acid assay
MDA-MB-231 [19] = assay: Induction of apoptosis in human MDA-MB-231 cells assessed as downregulation of KRAS gene expression at 10 to 20 uM incubated for 24 hrs by RT-PCR analysis; assay type: functional, cell-based; conditions: dose 10-20 µM
Quadruplex DNA [20] = assay: Binding affinity to G-quadruplex DNA in human MDA-MB-231 cells assessed as increase in fluorescence at 2 uM incubated for 30 mins by RNase A digestion based confocal microscopic analysis; assay type: cell-based
Quadruplex DNA [21] = assay: Binding affinity to Antiparallel ODN G-quadruplex DNA (unknown origin) assessed as increase in fluorescence intensity at 5 uM by fluorescence spectrophotometric analysis; assay type: nucleic-acid assay
MDA-MB-231 [22] = assay: Inhibition of cell migration in human MDA-MB-231 cells at 10 to 20 uM incubated for 24 hrs by reverse-phase microscopy based scratch wound healing assay; assay type: functional; conditions: dose 10-20 µM
MDA-MB-231 [23] = assay: Induction of cell cycle arrest in human MDA-MB-231 cells assessed as accumulation of cells at G2-M phase at 20 uM incubated for 24 hrs by flow cytometry (reference value: 16.8 %); assay type: functional
Quadruplex DNA [24] = assay: Binding affinity to KRAS G-quadruplex DNA (unknown origin) assessed as dissociation constant by fluorescence spectrophotometric analysis; assay type: nucleic-acid assay
MDA-MB-231 [25] = assay: Induction of cell cycle arrest in human MDA-MB-231 cells assessed as accumulation of cells at sub-G1 phase at 20 uM incubated for 24 hrs by flow cytometry (reference value: 0.6 %); assay type: functional
MDA-MB-231 [26] = assay: Induction of cell cycle arrest in human MDA-MB-231 cells assessed as accumulation of cells at S phase at 15 uM incubated for 24 hrs by flow cytometry (reference value: 13 %); assay type: functional
HEK-293T [27] = assay: Effect on KRAS gene expression in human HEK293T cells co-transfected with KRAS promoter luciferase reporter assessed as decrease in KRAS expression by measuring reduction in firefly luciferase expression at 10 to 20 uM incubated for 24 hrs by firefly luciferase based microplate analysis; assay type: functional, cell-based; conditions: dose 10-20 µM
MDA-MB-231 [28] = assay: Antiproliferative activity against human MDA-MB-231 cells cultured as 3D tumor spheroids assessed as inhibition of tumor volume incubated for 7 days; assay type: functional, cell-based; conditions: time 7.0 day
MDA-MB-231 [29] = assay: Induction of apoptosis in human MDA-MB-231 cells assessed as […] protein expression at 10 to 20 uM incubated for 24 hrs by Western blot analysis; assay type: functional, cell-based; conditions: dose 10-20 µM
Quadruplex DNA [30] = assay: Binding affinity to Parallel c-MYC G-quadruplex DNA (unknown origin) assessed as increase in fluorescence intensity at 5 uM by fluorescence spectrophotometric analysis; assay type: nucleic-acid assay
DNA [31] = assay: Binding affinity to Duplex DNA (unknown origin) assessed as dissociation constant by fluorescence spectrophotometric analysis; assay type: nucleic-acid assay
HEK-293T [32] = assay: Effect on c-MYC gene expression in human HEK293T cells co-transfected with c-Myc promoter luciferase reporter assessed as decrease in c-MYC expression by measuring reduction in firefly luciferase expression at 10 to 20 uM incubated for 24 hrs by firefly luciferase based microplate analysis; assay type: functional, cell-based; conditions: dose 10-20 µM
Quadruplex DNA [33] = assay: Binding affinity to Antiparallel HRAS G-quadruplex DNA (unknown origin) assessed as increase in fluorescence intensity at 5 uM by fluorescence spectrophotometric analysis; assay type: nucleic-acid assay

CCn1c2ccccc2c2cc(/C=C/c3sc4ccccc4[n+]3C)ccc21.[I-]
Activity (Quadruplex DNA [1]): Active | Activity (MDA-MB-231 [2]): 16% | Activity (Quadruplex DNA [3]): Active | Activity (Quadruplex DNA [4]): 0.19 | Activity (MDA-MB-231 [5]): 47.2% | Activity (DNA [6]): inactive | Kd (Quadruplex DNA [7]): 1 µM | Activity (MDA-MB-231 [8]): 10.3% | Activity (MDA-MB-231 [9]): 3% | Activity (Quadruplex DNA [10]): Active | Activity (Quadruplex DNA [11]): 0.3 | Activity (Quadruplex DNA [12]): Active | ΔTm (Quadruplex DNA [13]): 8.1 °C | Kd (Quadruplex DNA [14]): 1.1 µM | Activity (MDA-MB-231 [15]): Active | Activity (Quadruplex DNA [16]): Active | Activity (MDA-MB-231 [17]): Active | Activity (Quadruplex DNA [18]): Active | Activity (MDA-MB-231 [19]): Active | Activity (Quadruplex DNA [20]): Active | Activity (Quadruplex DNA [21]): Active | inhibition (MDA-MB-231 [22]): Active | Activity (MDA-MB-231 [23]): 6.4% | Kd (Quadruplex DNA [24]): 0.5 µM | Activity (MDA-MB-231 [25]): 56.7% | Activity (MDA-MB-231 [26]): 10.2% | Activity (HEK-293T [27]): Active | Activity (MDA-MB-231 [28]): Dose-Dependent Effect | Activity (MDA-MB-231 [29]): Active | Activity (Quadruplex DNA [30]): Active | Kd (DNA [31]): 5.3 µM | Activity (HEK-293T [32]): Active | Activity (Quadruplex DNA [33]): Active
